Literature values as cited in paper PMC11215690 (Clinical and Translational Science, 2024).

Tested on: healthy participants
Details: studies of healthy participants

Compound | most frequently reported TEAEs
CN1C(=O)[C@@H](NC(=O)c2nnc(Cc3ccccc3)[nH]2)COc2ccccc21 [GSK2982772] | headache and skin reaction of contact dermatitis
O=C(c1nc2n(n1)[C@H](c1ccccc1)C[C@@H]2F)C1CC1 [GDC‐8264] | headache and skin reaction of contact dermatitis
